The record followed here is PubChem BioAssay (NCI).

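Growth conditions: 96-well plates. Treatment: test compound, 48 hours, 5 concentrations. Analysis: linear interpolation between bracketing concentrations; unreached endpoints set to highest concentration. The concentration for 50% growth inhibition is given as GI50. At the TGI there is no net growth.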

Common to all, as to assay: inhibition of tumour cell growth, NCI panel, 48 h
The test system of assay [1] is BT-549 breast.
The subject of assay [2] is U251 CNS.
For assay [3], the system named is OVCAR-3 ovarian.
Assay [4] deals with SK-OV-3 ovarian.
For assay [5], the system named is HL-60(TB) leukemia.
Assay [6] concerns UACC-62 melanoma.
Assay [7] concerns HCC-2998 colon.
Assay [8] deals with TK-10 renal.
Assay [9] concerns KM12 colon.
For assay [10], the system named is MDA-MB-435.

Take `O=C(COc1ccc(-c2nc3cc(Cl)c(Cl)cc3[nH]2)cc1)N=Nc1c(O)[nH]c2ccccc12`: the GI50 in [1] was 12.7 µM; in assay [2] it was 0.564 µM; in [3] it was 2.7 µM; in assay [4], 2.28 µM; in assay [5], more than 100 µM; in [6], 2.83 µM. Also, the GI50 in assay [7] was 1.35 µM; in assay [8], more than 33.1 µM. For the same compound, the TGI in assay [1] is 59 µM; in assay [2], 2.1 µM; in assay [3], more than 100 µM; in assay [4], 9.88 µM; in [5], more than 100 µM; in assay [6], more than 100 µM. Besides, the TGI is 3.75 µM in [7] and more than 58.5 µM in [8].

On to `CCCCN1CCN(c2ccc3nc(-c4ccc5nc(-c6ccc(OCC)c(OCC)c6)[nH]c5c4)[nH]c3c2)CC1`, for which the GI50 in assay [2] is 1.28 µM; in assay [3], 0.358 µM; in assay [9], 1.42 µM; in [4], 1.33 µM; in assay [5] it was 0.704 µM; in assay [6] it was 0.686 µM. For the same compound, the GI50 in assay [10] is 1.09 µM; in assay [8] it was 1.66 µM. Further, the TGI amounted to 2.69 µM in assay [2]; 0.85 µM in assay [3]; 2.99 µM in assay [9]; 3.27 µM in [4]; 3.18 µM in [5]; 2.18 µM in assay [6]. In addition, the TGI in [10] turned out to be 2.39 µM; in assay [8], 5.17 µM.

On to `O=C(CC1C(=O)Nc2ccccc2S1(=O)=O)Nc1cccc(Cl)c1` (centres undefined), for which the TGI in assay [2] was 26.4 µM; in assay [3] it was 29.6 µM; in assay [5] it was 44.1 µM; in assay [6], 30.3 µM; in assay [7], 32.1 µM; in assay [8], 46.6 µM.

For `Cc1cc(NS(=O)(=O)c2ccc(Nc3c4ccccc4nc4c(C(=O)Nc5ccc(S(=O)(=O)N=C(N)N)cc5)ccc(Cl)c34)cc2)no1`, the TGI in assay [2] was more than 100 µM; in [3], 63.2 µM; in assay [9], more than 100 µM; in [4], 95.4 µM; in [5], 68.8 µM; in assay [6], 73.5 µM. In addition, the TGI in assay [7] and in [8] was more than 100 µM throughout.

Take `COc1cc2ccc(CC(N)=O)cc2cc1OC`: the TGI in [2], in [3], in assay [9], in [4], in [6] and in [8] was more than 100 µM throughout.

With `Cc1cnc(SCCN2CCN(C)CC2)nc1-c1cc2ccccc2s1`, the TGI in [2] is 21.7 µM; in assay [3], 24.6 µM; in [9], 32.2 µM; in assay [4], 13.8 µM; in assay [6], 32.2 µM; in [7] it was 26.9 µM. The compound also had a TGI in [8] of 33.1 µM.

Turning to `CN1C(=O)C(=CN(C)c2ccccc2)C(=O)N(C)C1=O`, the TGI in [2], in [3], in assay [9], in assay [5], in [6] and in [7] was more than 100 µM in each case. Moreover, the TGI in assay [8] is more than 100 µM.

On to `CCCCCCCCCCCCCCNCC(OCC)OCC`, for which the TGI in assay [2] is 30.5 µM; in assay [3], 33.7 µM; in [9], 22.2 µM; in [4], 32.8 µM; in assay [5] it was 11.5 µM; in [6] it was 33 µM. The TGI in [7] was 27.3 µM; in assay [8] it was 32.7 µM.

Turning to `COC[C@@H](N=CN1CCc2cc(OC)c(OC)cc2C1)C(C)(C)C`, the TGI in assay [2], in [3], in assay [9], in assay [4], in [5] and in [6] was more than 100 µM throughout. For the same compound, the TGI in [8] is more than 100 µM.

On to `O=C1CCC2(c3ccccc3)Nc3ccc(Cl)cc3N12` (centres undefined), for which the TGI in [2], in assay [3], in assay [9], in assay [4], in assay [5] and in [6] was more than 100 µM throughout. Moreover, the TGI in [7] and in assay [8] was more than 100 µM each time.

Consider `O=C1c2c(c3c4ccccc4[nH]c3c3[nH]c4ccccc4c23)C(=O)N1Cc1ccccc1`, for which the TGI in assay [2] was 6.34 µM; in assay [3], 8.16 µM; in [9], 9.47 µM; in assay [4] it was 9.49 µM; in [6] it was 16.2 µM; in [7] it was 16.3 µM. The same compound yielded a TGI in assay [8] of 11.6 µM.

In the case of `CC12CC(Sc3ccccc3N1)c1ccccc1O2` (centres undefined), the TGI stood at 26 µM in [2]; 30.3 µM in [3]; 28.6 µM in assay [9]; 58.4 µM in assay [4]; 28.8 µM in [5]; 30.7 µM in assay [6]. In addition, the results for the TGI in assay [7] and in assay [8] were 31 µM and 51.4 µM, respectively.

`CN(C)c1ccc(/C=N/NC(=O)c2cccc3ccccc23)c(Cl)c1`: the GI50 in [1] was 0.733 µM; in assay [2], 1.1 µM; in assay [3] it was 0.865 µM; in [9], 1.01 µM; in [4], 1.67 µM; in assay [5], 0.46 µM. The GI50 in assay [6] was 0.978 µM; in assay [7] it was 38.5 µM; in [8], 5 µM. Also, the TGI is more than 100 µM in assay [1]; 26.2 µM in [2]; 13.5 µM in assay [3]; more than 100 µM in assay [9]; 25.2 µM in [4]; 3.64 µM in [5]. Also, the TGI is more than 100 µM in assay [6], more than 100 µM in [7] and 39.3 µM in assay [8].

As for `C/C=C1\CCC2c3[nH]c4ccccc4c3CCN2C1` (centres undefined), the TGI in assay [2], in assay [3], in assay [9], in assay [4], in assay [5] and in [6] was more than 100 µM in each case. The TGI in assay [8] was more than 100 µM.
